Measured values from ChEMBL document CHEMBL1201862, “PubChem BioAssay data set” (2004).
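All cell lines were grown in 96-well plates and treated with compound for 48 hours. Abbreviation: GI50, concentration required for 50% inhibition of growth.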 Activity calls are given as the source filed them. No stated cut-off is given here; in the data, active = GI50 up to about 1.1 µM and inactive = higher.

How the values were obtained:
Assay in all cases: growth of human tumour cells (NCI), 48 h
[1] = test system: DMS-114
[2] = test system: NCI-H460
[3] = test system: SNB-75
[4] = test system: UACC-62
[5] = test system: DU-145
[6] = test system: UO-31
[7] = test system: SF-268
[8] = test system: HL-60
[9] = test system: A498
[10] = test system: LOX IMVI
[11] = test system: SNB-19
[12] = test system: KM12
[13] = test system: SNB-78
[14] = test system: DMS-273
[15] = test system: HCT-15
[16] = test system: OVCAR-4
[17] = test system: SR

Measured: GI50

Nc1nc2c(ncn2C2OC(CO)C(O)C2O)c(=O)o1 (stereo unspecified)
inactive: [1] 67.3 µM | [2] > 100 µM | [3] > 100 µM | [4] > 100 µM | [5] > 100 µM | [6] > 87.1 µM | [7] > 100 µM | [8] > 45.1 µM | [9] > 100 µM | [10] > 58.2 µM | [11] > 100 µM | [12] > 100 µM | [13] > 100 µM | [14] 22.5 µM | [16] > 100 µM
42.9 µM: [15]

O=C(NCCCCCCCCNC(=O)c1cnc2ccccc2n1)c1cnc2ccccc2n1
> 100 µM: [15]
inactive: [1] > 100 µM | [2] > 100 µM | [3] 49.9 µM | [4] > 100 µM | [6] > 100 µM | [7] > 100 µM | [8] > 100 µM | [9] > 100 µM | [10] > 100 µM | [11] > 100 µM | [12] > 100 µM | [13] > 100 µM | [14] > 100 µM | [17] > 100 µM | [16] > 100 µM

OCCN1CCN2C=C(C3CCCC4N(CCO)CCN34)CCC21 (stereo unspecified)
27.9 µM: [15]
inactive: [1] 25.4 µM | [2] > 100 µM | [3] 34.8 µM | [4] 28.1 µM | [6] 97.3 µM | [7] 49.8 µM | [8] 5.28 µM | [9] > 100 µM | [10] 26.7 µM | [11] > 100 µM | [12] > 95.7 µM | [13] 37.9 µM | [14] 49.2 µM | [17] 5.68 µM | [16] 52.8 µM

CCCCCCCCCCCCCC(=O)OCC1OC(n2cc(F)c(=O)[nH]c2=O)C(NC(=O)OCc2ccccc2)C(OC(=O)CCCCCCCCCCCCC)C1O (stereo unspecified)
inactive: [1] > 100 µM | [2] > 100 µM | [3] > 100 µM | [4] > 100 µM | [6] > 100 µM | [7] > 100 µM | [8] > 100 µM | [9] > 100 µM | [10] > 100 µM | [11] > 100 µM | [12] > 100 µM | [13] > 100 µM | [14] > 100 µM | [17] > 100 µM | [16] > 100 µM
> 100 µM: [15]

Cc1ccc(S(=O)(=O)N2CCC3(C(/C=C/c4ccccc4)=Nc4ccccc43)C2c2ccccc2)cc1 (stereo unspecified)
> 100 µM: [15]
inactive: [1] > 100 µM | [2] > 100 µM | [3] 87.3 µM | [4] > 100 µM | [6] 61.7 µM | [7] > 100 µM | [8] > 100 µM | [9] > 100 µM | [10] > 100 µM | [11] > 100 µM | [12] > 100 µM | [13] > 100 µM | [14] > 100 µM | [17] > 100 µM | [16] > 100 µM

COC(=O)C1[C@@H](C(=O)OC)C(=O)O[C@H]1c1cc(OC)c(OC)c(OC)c1 (stereo partly specified)
> 100 µM: [15]
inactive: [1] > 100 µM | [2] > 100 µM | [3] > 100 µM | [4] > 100 µM | [6] > 100 µM | [7] > 100 µM | [8] > 100 µM | [9] 48.5 µM | [10] > 100 µM | [11] > 100 µM | [12] > 100 µM | [13] > 100 µM | [14] > 100 µM | [17] > 100 µM | [16] > 100 µM
